Assay results: patent US6593333B1, “Substituted anilino-quinazoline (or quinoline) compounds and use thereof” (Astrazeneca AB, priority 1998, dated 2003)

Assays:
[1] = system: TNFα production, human peripheral blood mononuclear cells; experiment: PBMC test: inhibition of LPS-stimulated TNFα production; assay type: cell-based
Procedure: The ability of compounds of this invention to inhibit TNFα production was assessed by using human peripheral blood mononuclear cells which synthesise and secrete TNFα when stimulated with lipopolysaccharide.
Peripheral blood mononuclear cells (PBMC) were isolated from heparinised (10 units/ml heparin) human blood by density centrifugation (Lymphoprep™; Nycomed). Mononuclear cells were resuspended in culture medium [RPMI 1640 medium (Gibco) supplemented with 50 units/ml penicillin, 50 μg/ml streptomycin, 2 mM glutamine and 1% heat-inactivated human AB serum (Sigma H-1513)]. Compounds were solubilised in DMSO at a concentration of 50 mM, diluted 1:100 in culture medium and subsequently serial dilutions were made in culture medium containing 1% DMSO. PBMCs (2.4×10^5 cells in 160 μl culture medium) were incubated with 20 μl of varying concentrations of test compound (triplicate cultures) or 20 μl culture medium containing 1% DMSO (control wells) for 30 minutes at 37° C. in a humidified (5%CO2/95% air) incubator (Falcon 3072; 96 well flat-bottom tissue culture plates). 20 μl lipopolysaccharide [LPS E.Coli 0111:B4 (Sigma L-4130), final concentration 10 μg/ml] solubilised in culture medium was added to appropriate wells. 20 μl culture medium was added to “medium alone” control wells. Six “LPS alone” and four “medium alone” controls were included on each 96 well plate. Varying concentrations of a known TNFα inhibitor were included in each test, i.e. an inhibitor of the PDE Type IV enzyme (for example see Semmler, J. Wachtel. H and Endres, S., Int. J. Immunopharmac. (1993), 15(3), 409-413) or an inhibitor of pro TNFα convertase (for example, see McGeehan, G. M. et al. Nature (1994) 370, 558-561). Plates were incubated for 7 hours at 37° C. (humidified incubator) after which 100 μl of the supernatant was removed from each well and stored at −70° C. (96 well round-bottom plates; Corning 25850). TNFα levels were determined in each sample using a human TNFα ELISA (see WO92/10190 and Current Protocols in Molecular Biology, vol 2 by Frederick M. Ausbel et al., John Wiley and Sons Inc.).
% inhibition=(LPS alone−medium alone)−(test concentration−medium alone)/(LPS alone−medium alone)×100

p38α = biological target: T1, p38α (Homo sapiens, UniProt Q16539); experiment: In vitro enzyme assay, p38α kinase; assay type: biochemical
T1 construct: c-myc (N); 6His (N); made in house; host or cells: E. coli (PET vectors)
T1 sequence (Q16539 whole entry): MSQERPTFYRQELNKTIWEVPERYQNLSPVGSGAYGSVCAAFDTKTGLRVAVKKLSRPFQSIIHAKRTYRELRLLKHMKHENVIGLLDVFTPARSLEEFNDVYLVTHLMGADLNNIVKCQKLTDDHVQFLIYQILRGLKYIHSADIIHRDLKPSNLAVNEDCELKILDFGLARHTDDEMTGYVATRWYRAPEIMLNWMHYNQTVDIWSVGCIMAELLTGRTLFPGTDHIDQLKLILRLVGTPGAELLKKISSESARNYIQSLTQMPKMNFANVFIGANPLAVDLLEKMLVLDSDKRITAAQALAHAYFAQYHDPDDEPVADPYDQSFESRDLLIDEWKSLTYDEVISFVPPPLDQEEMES
Procedure: The ability of compounds of the invention to inhibit the enzyme p38 kinase was assessed. Activity of particular test compounds against each of the p38α and p38β isoforms of the enzyme was determined.
Human recombinant MKK6 (GenBank Accesion Number G1209672) was isolated from Image clone 45578 (Genomics, 1996, 33, 151) and utilised to produce protein in the form of a GST fusion protein in a pGEX vector using analogous procedures to those disclosed by J. Han et al., Journal of Biological Chemistry, 1996, 271, 2886-2891. p38α (GenBank Accession Number G529039) and p38β (GenBank Accession Number G1469305) were isolated by PCR amplification of human lymphoblastoid cDNA (GenBank Accession Number GM1416) and human foetal brain cDNA [synthesised from mRNA (Clontech, catalogue no. 6525-1) using a Gibco superscript cDNA synthesis kit] respectively using oligonucleotides designed for the 5′ and 3′ ends of the human p38α and p38β genes using analogous procedures to those described by J. Han et al., Biochimica et Biophysica Acta, 1995, 1265, 224-227 and Y. Jiang et al., Journal of Biological Chemistry, 1996, 271, 17920-17926.
Both p38 protein isoforms were expressed in e coli in PET vectors. Human recombinant p38α and p38β isoforms were produced as 5′ c-myc, 6His tagged proteins. Both MKK6 and the p38 proteins were purified using standard protocols: the GST MKK6 was purified using a glutathione sepharose column and the p38 proteins were purified using nickel chelate columns.
The p38 enzymes were activated prior to use by incubation with MKK6 for 3 hours at 30° C. The unactivated coli-expressed MKK6 retained sufficient activity to fully activate both isoforms of p38. The activation incubate comprised p38α (10 μl of 10 mg/ml) or p38β (10 μl of 5 mg/ml) together with MKK6 (10 μl of 1 mg/ml), ‘Kinase buffer’ [100 μl; pH 7.4 buffer comprising Tris (50 mM), EGTA (0.1 mM), sodium orthovanadate (0.1 mM) and β-mercaptoethanol (0.1%)] and MgATP (30 μl of 50 mM Mg(OCOCH3)2 and 0.5 mM ATP). This produced enough activated p38 enzyme for 3 Microtiter plates.
Test compounds were solubilised in DMSO and 10 μl of a 1:10 diluted sample in ‘Kinase Buffer’ was added to a well in a Microtiter plate. […] The precipitated protein was phosphorylated by p38 kinase and test compounds were assessed for their ability to inhibit this phosphorylation. The plates were filtered using a Canberra Packard Unifilter and washed with 2% TCA, dried overnight and counted on a Top Count scintillation counter.
Test compounds were tested initially at a single dose and active compounds were retested to allow IC50 values to be determined.

| SMILES | IC50 [1] | IC50 (p38α) |
| --- | --- | --- |
| COc1cc2ncnc(Nc3ccc(C)c(NC(=O)c4ccccc4)c3)c2cc1OC [Example 11] | 3600 nM | 1300 nM |
| CCC(=O)Nc1cc(Nc2ncnc3cc(OC)c(OC)cc23)ccc1F [Example 14] | 3200 nM | 3400 nM |
| COc1cc2c(Nc3cc(NC(=O)c4cccc(N(C)C)c4)ccc3C)ncnc2c(OC)c1OC [Example 24, 4-[2-Methyl-5-(3-dimethylaminobenzamido)anilino]-6,7,8-trimethoxyquinazoline] | 5200 nM | 200 nM |
| COc1cc2c(Nc3cc(NC(=O)c4cccc(N(C)C)c4)ccc3C)ncnc2cc1OCCCN1CCOCC1 [Example 38] | 2000 nM | 100 nM |
